Experimental findings from patent US20060013804A1, “Modulation of stem cell differentiation by modulation of caspase-3 activity” (Ottawa Health Research Institute, priority 2002, published 2006) are described below.

“Also recorded” adds a separate entry of the source.

What all share (assay type): cell-based, mouse
Assay [1] concerns clonally-derived CD1 neurospheres. The experiment in a line: CD1 neurosphere differentiation with caspase inhibitor: immunocytochemistry and immunoblot of neural markers. The note with it: for nestin expression under differentiation conditions: early periods (48 h). The method, then:
Neurosphere culture: clonally-derived neurospheres were generated from the striatum of E14.5 CD1 murine embryos according to methods previously described (Reynolds, B. A., and Weiss, S. (1996) Dev Biol 175, 1-13). The neurospheres were maintained in NeuroCult Proliferation Medium (StemCell Technologies, Canada) supplemented with 20 ng/ml basic fibroblast growth factor (bFGF) as per manufacturer's instructions.
Neurospheres were sub-cultured no more than once per collection. The differentiation of neurospheres was initated by plating spheres on poly-L-ornithine coated plates in NeuroCult Differentiation Medium in the absence of bFGF, as per manufacturer's instructions. […] All cultures received fresh media and inhibitor every 24 h for the duration of the experiment. Neurospheres from caspase 3 null embryos (Fernando, P., et al., (2002) Proc Natl Acad Sci USA 99, 11025-11030) were cultured as described above.
Immunocytochemistry: Neurospheres were collected at selected time points, fixed in 4% paraformaldehyde and prepared for immunostaining as previously described (Fernando, P., et al., (2002) Proc Natl Acad Sci USA 99, 11025-11030)). The primary antibody concentrations for anti-nestin, -GFAP, -MBP and -active caspase 3 (BioVision, USA) were titrated on wildtype CD1 neurospheres prior to their experimental use. These antibodies were visualized by counterstaining with either FITC or Cy3 conjugated secondary antibodies (Chemicon USA). Nuclei were localized with 4′,6-Diamidino-2 phenylindole (DAPI) (Sigma, USA). Cells were visualized using either an Axiovert 100 for transmission microscopy or Axioplan 2 for fluorescent microscopy (Zeiss, Germany) at selected magnifications. Captured images were processed using AxioVision Viewer 3.0 software.
Immunoblot Assays: Immunoblot analyses were performed as previously described (Fernando, P., et al., (2002) Proc Natl Acad Sci USA 99, 11025-11030). All samples were processed at 4° C. to maintain protein integrity. To generate neurosphere cell extracts, cultured neurospheres were collected at the indicated time points and solubilized in modified RIPA buffer containing protease and phosphatase inhibitors. Cells were sheared 4-5 times through a 21 gauge needle and mixed by 360° rotation at 4° C. for 30 minutes. Nestin 3 (AbCam, UK) was detected following the separation of total cellular proteins through a 6% acrylamide gel and Western transfer. Antibodies against neuronal class III […] and GFAP (AbCam, USA), active caspase 3 (BioVision, USA), 2′3′ cyclic nucleotide 3′ phosphohydrolase (CNPase) (Chemicon, USA) and p38α (Santa Cruz, USA) were used to detect proteins following separation by 10% polyacrylamide electrophoresis and Western transfer. In some instances, sample aliquots were sonicated following cell lysis in order to detect total cellular poly-ADP ribose polymerase (PARP) (BioVison, USA). Soluble PARP was assayed from unsonicated samples. Protein bands from Western blot assays were quantitated using Scion Image (Scion Corporation, USA).
On the technique in general: Immunoblotting shows a protein as a band on a membrane.

The subject of assay [2] is endogenous kinases (MBP-directed cellular kinase activities). The assay is described as follows: Two-dimensional in-gel kinase assay of C2C12 lysates with MBP as substrate. As to conditions: C2C12, 12 h low serum treatment with inhibitor, vs untreated. Here is the method:
Samples were subjected to in-gel kinase analyses as previously described (Kolodziejczyk, S. M., et al., (1999) Curr Biol 9, 1203-1206) using MBP or Histone H1 as the target substrate. For two-dimension in-gel kinase analyses, samples were isoelectric focused in the first dimension using pH 4.0-7.0 IPG strips (BioRad). Second dimension analyses was performed using 10% SDS-PAGE containing Histone H1 as the in-gel substrate. Additional in-gel kinase analyses was performed as above.
A two-dimensional in-gel kinase assay was employed using myelin basic protein (MBP) as a target substrate to identify protein kinases that may be targeted by caspase-3 activity. C2C12 cells were treated with caspase-3 inhibitor and total protein lysates were isoelectrically focused in the first dimension and then separated in the second dimension using MBP as the crosslinked substrate. […] Similar results were seen using histone H1 as the in-gel substrate.

The test system of another assay is C2C12 myoblasts. The assay is described as follows: C2C12 myoblast differentiation in low serum media with caspase inhibitors (MF20 staining, immunoblot of myogenic markers). As to conditions: 20 μM inhibitor; for myotube formation: C2C12, low serum media, MF20 staining, up to 4 days; for myotube formation / myoblast fusion (mononucleated / fused cells): vs DMSO; for myoblast fusion (mononucleated / fused cells) / expression of MEF2C / accumulation of myogenin: C2C12, low serum; for myoblast fusion (mononucleated / fused cells): 4 days; for expression of MEF2C / accumulation of myogenin: Western blot; for expression of MEF2C: vs control; for accumulation of myogenin: vs control myoblasts. Here is the method: Myoblast culture. C2C12 cell (mouse skeletal muscle myoblast) cultures were grown and maintained in DMEM containing 10% FBS with 50 units/ml penicillin and 50 μg/ml streptomycin (Gibco). Differentiation was induced by incubating cultures in DMEM containing only a low serum concentration (2% horse serum). Caspase activity was measured using a Caspase-3 and Caspase-8 Fluorometric Assay Kit (Pharmingen). […] Control cells were treated with an equivalent amount of vehicle (DMSO). Primary myoblast cells were derived from skeletal muscles of the hind- and fore-limbs from 1-2 day old C57BL/6 wild-type, caspase-3 heterozygous and caspase-3 null mice (Frasch, S. C., et al., (1998) J. Biol. Chem. 273, 8389-8397; Kuida, K., et al., (1996) Nature 384, 368-372) (n=5 for each genotype) as described (Cregan, S. P. et al., (1999) J. Neuro. 19, 7860-7869.). To induce differentiation, primary myoblast cultures were incubated in DMEM containing 5% horse serum.
Protein isolation, immunoblot analyses and immunocytochemistry. Cells from C2C12 and primary myoblast cultures were washed with ice-cold PBS and lysed on ice for 45 minutes in modified-RIPA buffer containing 20 mM NaF, 5 mM Na3VO4 and 10 μg/ml each of aprotinin, leupeptin, pepstatin and PMSF. Total protein was measured using the BCA protein assay (Pierce). Immunoblot analyses were performed as described (Creasy, C. L., & Chernoff, J. (1995) J. Biol. Chem. 270, 21695-21700) using antibodies for MST1, MKK6, p38γ, and p38α (Upstate), p38 and MEF2C (Cell Signaling Technologies), myogenin F5D and myosin heavy chain MF20 mAb (Developmental Hybridoma Bank), and active caspase-3 (Biovision).
C2C12 myoblasts were fixed and stained with anti-MF20 as previously described (Cregan, et al., (1999) J. Neuro. 19, 7860-7869). Primary myoblast cultures were fixed in 4% paraformaldehyde, rinsed three times in PBS containing 0.01% Triton X-100 and stained as above. For both C2C12 and primary myoblast cultures, nuclei were detected by incubating cells for 10 min with 4,6-diamidino-2-phenylindole diluted 1:10000 in PBS.
Cells were fixed after 0, 2 and 4 days of differentiation and stained with the myosin heavy chain antibody MF20. […] In contrast, differentiation was more evident in cells that were incubated with caspase-8 inhibitor, z-LETD.fmk (FIG. 2B bottom panel, C).

Where [3] appears, read: 2.0 μM inhibitor, differentiation media 48 h.

Take `COC(=O)CC[C@H](NC(=O)[C@H](CC(=O)OC)NC(=O)OCc1ccccc1)C(=O)N[C@H](C(=O)N[C@@H](CC(=O)OC)C(=O)CF)C(C)C` [z-DEVD.fmk]: the GFAP expression result in assay [1] (setting [3]) is reported as “significant decrease; also recorded: fail to express the astrocyte marker protein GFAP”. In addition, the MBP expression entry in assay [1] (setting [3]) was “significant decrease; also recorded: fail to express the oligodendrocyte marker protein MBP”. Besides, the “nestin expression under differentiation conditions” value in assay [1] (2.0 μM inhibitor, differentiation media) was “sustained expression of nestin; also recorded: remain in an early progenitor state and express nestin”; in assay [1] (2.0 μM inhibitor, differentiation media, listed as DEVD) it was “remained elevated”; in assay [1] (2.0 μM inhibitor, differentiation media, listed as z-DEVD), “remained elevated during the early periods of differentiation”. In addition, in assay [1] (2.0 μM inhibitor, growth conditions), the “nestin expression under growth conditions” value was “did not affect nestin expression; also recorded: express nestin”. Also, in assay [1] (4 d, immunoblot), the “nestin after extended period in differentiation media” value is on record as “a decrease in nestin was observed”. Further, the “β-III tubulin level after 5 d” value in assay [1] (5 d differentiation, immunoblot) is on record as “very low level of β-III tubulin was detectable”. Moreover, in assay [1] (differentiation media, immunoblot, vs DMSO), the “β-III tubulin (Tuj-1) accumulation” value was “did not increase; also recorded: lower in caspase 3 inhibited samples relative to control”. For the same molecule, the “activity of endogenous kinases (in-gel, MBP substrate)” value is listed as “diminished level of activity” in assay [2] and “significant loss of MBP-directed cellular kinase activities” in assay [2] (listed as caspase-3 inhibitor). The myotube formation entry is listed as “impaired formation of myotubes” with C2C12 myoblasts and “drastically attenuated” in the assay on C2C12 myoblasts (listed as Z-DEVD.fmk). Moreover, the “myoblast fusion (mononucleated / fused cells)” value was “remained mononucleated and unfused after 4 days” in the assay with C2C12 myoblasts; “lack fusion capacity” with C2C12 myoblasts (listed as Z-DEVD.fmk). The “expression of MEF2C” value in the assay with C2C12 myoblasts is on record as “virtually absent”; with C2C12 myoblasts (listed as Z-DEVD.fmk), “low levels of MEF2C relative to control cells”. Further, the accumulation of myogenin result in the assay with C2C12 myoblasts was “delayed and attenuated accumulation”; in the assay on C2C12 myoblasts (listed as Z-DEVD.fmk) it was “delayed and is in lower abundance”.
